{"source": "ChEMBL document CHEMBL1201862", "about": "“PubChem BioAssay data set” (2004)", "assay_type_in_all_cases": "functional", "key": {"[1]": {"biological_target": "DNA dC->dU-editing enzyme APOBEC-3A (Homo sapiens, UniProt P31941)", "sequence (P31941 whole entry)": "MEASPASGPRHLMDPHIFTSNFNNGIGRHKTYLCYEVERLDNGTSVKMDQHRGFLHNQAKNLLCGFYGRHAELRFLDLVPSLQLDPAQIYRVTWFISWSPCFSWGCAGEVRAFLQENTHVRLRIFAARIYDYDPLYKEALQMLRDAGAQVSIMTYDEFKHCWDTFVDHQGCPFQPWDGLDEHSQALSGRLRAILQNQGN", "assay": "APOBEC3A DNA deaminase inhibitors, dose response, biochemical (AID 504722)"}, "[2]": {"biological_target": "DNA dC->dU-editing enzyme APOBEC-3G (Homo sapiens, UniProt Q9HC16)", "sequence (Q9HC16 whole entry)": "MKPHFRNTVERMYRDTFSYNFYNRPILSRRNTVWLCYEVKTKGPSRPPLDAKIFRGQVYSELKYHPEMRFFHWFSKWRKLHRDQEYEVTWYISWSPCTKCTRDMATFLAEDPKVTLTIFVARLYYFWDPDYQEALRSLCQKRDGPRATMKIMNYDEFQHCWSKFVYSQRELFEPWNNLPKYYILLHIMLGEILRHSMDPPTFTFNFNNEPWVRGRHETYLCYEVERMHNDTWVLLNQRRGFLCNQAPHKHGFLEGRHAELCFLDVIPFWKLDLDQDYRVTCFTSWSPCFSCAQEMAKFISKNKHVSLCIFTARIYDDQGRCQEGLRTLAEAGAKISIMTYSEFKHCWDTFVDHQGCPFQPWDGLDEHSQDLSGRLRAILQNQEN", "assay": "Dose Response confirmation of small molecule APOBEC3G DNA Deaminase Inhibitors via a fluorescence-based single-stranded DNA deaminase assay. [Related pubchem assays (depositor defined):AID493012, AID493028]"}, "[3]": {"biological_target": "Lysosomal acid glucosylceramidase (Homo sapiens, UniProt P04062)", "sequence (P04062 whole entry)": "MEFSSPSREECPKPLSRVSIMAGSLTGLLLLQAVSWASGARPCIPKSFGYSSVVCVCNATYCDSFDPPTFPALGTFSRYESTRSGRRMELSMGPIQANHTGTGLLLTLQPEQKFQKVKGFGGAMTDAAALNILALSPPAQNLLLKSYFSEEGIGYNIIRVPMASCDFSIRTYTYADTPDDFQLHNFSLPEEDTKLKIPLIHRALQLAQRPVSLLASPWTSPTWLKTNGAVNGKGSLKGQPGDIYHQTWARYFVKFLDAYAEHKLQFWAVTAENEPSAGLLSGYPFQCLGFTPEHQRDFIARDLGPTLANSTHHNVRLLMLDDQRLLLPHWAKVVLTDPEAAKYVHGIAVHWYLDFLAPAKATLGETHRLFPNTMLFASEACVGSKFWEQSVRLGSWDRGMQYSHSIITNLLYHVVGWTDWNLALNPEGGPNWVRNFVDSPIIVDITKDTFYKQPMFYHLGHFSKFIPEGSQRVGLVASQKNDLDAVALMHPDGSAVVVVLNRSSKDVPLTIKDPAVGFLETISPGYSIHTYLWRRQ", "assay": "Dose response cell-based high throughput screening assay to identify enhancers of beta-glucosidase activity. [Related pubchem assays: 784 ]"}, "[4]": {"biological_target": "T1, Tyrosine-protein phosphatase non-receptor type 7 (Homo sapiens, UniProt P35236)", "T1 sequence (P35236 whole entry)": "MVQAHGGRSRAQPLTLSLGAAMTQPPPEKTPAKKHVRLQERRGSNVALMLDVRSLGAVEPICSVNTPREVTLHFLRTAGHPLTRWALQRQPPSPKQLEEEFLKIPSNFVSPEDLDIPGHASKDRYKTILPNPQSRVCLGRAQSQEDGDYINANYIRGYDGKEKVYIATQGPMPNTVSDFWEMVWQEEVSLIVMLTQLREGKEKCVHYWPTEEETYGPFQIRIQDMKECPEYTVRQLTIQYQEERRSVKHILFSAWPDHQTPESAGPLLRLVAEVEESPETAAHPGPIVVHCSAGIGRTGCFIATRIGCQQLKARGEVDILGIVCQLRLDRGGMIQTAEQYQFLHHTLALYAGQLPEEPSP", "assay": "SAR analysis of chemical inhibitors of HePTP using a Fluorescent assay - Set 2. [Related pubchem assays (depositor defined):AID1059, AID1077, AID1661, AID2085, AID521]"}, "[5]": {"biological_target": "Dual specificity protein phosphatase 3 (Homo sapiens, UniProt P51452)", "sequence (P51452 whole entry)": "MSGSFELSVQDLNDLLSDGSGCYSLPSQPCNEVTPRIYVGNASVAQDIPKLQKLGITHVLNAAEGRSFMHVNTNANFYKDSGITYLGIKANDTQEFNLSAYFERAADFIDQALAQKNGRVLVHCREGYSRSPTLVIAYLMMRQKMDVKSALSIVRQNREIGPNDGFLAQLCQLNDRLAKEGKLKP", "assay": "SAR VHR1 Fluorescent Assay for In Vitro dose response studies Set 2. [Related pubchem assays (depositor defined):AID1654, AID1661, AID1878]"}, "HEK293": {"system": "HEK293", "assay": "Fluorescence-based counterscreen for potentiators or agonists of NPY-Y2: cell-based high-throughput dose response assay to identify inhibitors of cyclic nucleotide gated ion channel (CNGC) activity. In this assay, the parental HEK293 cell line transfected with a cyclic-nucleotide gated ion channel (CNGC)-based cAMP sensor is used to measure inhibition of isoproterenol-induced CNGC activity by test compound.", "details": "Homo sapiens"}, "[6]": {"biological_target": "T2, Neuropeptide Y receptor type 1 (Homo sapiens, UniProt P25929)", "T2 sequence (P25929 whole entry)": "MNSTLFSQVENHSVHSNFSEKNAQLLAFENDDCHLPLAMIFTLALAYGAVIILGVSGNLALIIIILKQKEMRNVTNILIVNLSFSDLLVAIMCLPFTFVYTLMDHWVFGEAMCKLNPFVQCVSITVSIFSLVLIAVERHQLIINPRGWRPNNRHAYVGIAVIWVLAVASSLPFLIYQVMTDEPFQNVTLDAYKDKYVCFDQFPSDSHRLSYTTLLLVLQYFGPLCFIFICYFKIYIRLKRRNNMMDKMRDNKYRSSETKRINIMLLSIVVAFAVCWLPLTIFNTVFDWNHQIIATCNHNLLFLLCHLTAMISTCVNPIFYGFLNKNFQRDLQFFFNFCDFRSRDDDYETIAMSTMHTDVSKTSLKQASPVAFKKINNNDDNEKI", "assay": "Fluorescence-based counterscreen for agonists of NPY-Y2: cell-based high-throughput dose response assay for agonists of NPY-Y1."}, "[7]": {"assay": "THP-1 cell cytotoxicity, dose response, cytotoxicity control for Vif-APOBEC3G degradation inhibitor project, THP-1 cells (AID 1117359)", "details": "Human immunodeficiency virus 1, THP-1"}, "[8]": {"biological_target": "T3, Neuropeptide Y receptor type 2 (Homo sapiens, UniProt P49146)", "T3 sequence (P49146 whole entry)": "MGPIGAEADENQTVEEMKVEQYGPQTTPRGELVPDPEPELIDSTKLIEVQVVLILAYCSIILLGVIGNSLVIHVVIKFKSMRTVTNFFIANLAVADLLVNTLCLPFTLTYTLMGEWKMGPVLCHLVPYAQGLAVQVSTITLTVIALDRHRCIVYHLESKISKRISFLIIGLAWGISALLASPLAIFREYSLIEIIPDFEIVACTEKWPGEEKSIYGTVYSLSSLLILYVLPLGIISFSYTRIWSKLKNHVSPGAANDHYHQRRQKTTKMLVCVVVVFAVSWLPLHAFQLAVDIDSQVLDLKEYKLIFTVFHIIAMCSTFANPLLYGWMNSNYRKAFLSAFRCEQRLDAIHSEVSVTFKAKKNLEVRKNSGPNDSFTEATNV", "assay": "Fluorescence-based cell-based high-throughput dose response assay for agonists of NPY-Y2. [Related pubchem assays: 1703 (Screening assay (CNGC inhibitors).), 1359 (Screening assay (NPY-Y2 potentiators or agonists).), 1304 (Screening assay (NPY-Y1 potentiators or agonists).), 1710 (Screening assay (NPY-Y2 agonists).), 1791 (Summary AID.)]"}}, "note": "Calls of active or inactive are those of the source."}
{"smiles": "N#Cc1c(S)nc2c(c1-c1cccnc1)CCCC2", "values": [{"measurement": "IC50", "setting": "[1]", "value": "> 100 µM (inactive)"}, {"measurement": "IC50", "setting": "[2]", "value": "2.72 µM (active)"}]}
{"smiles": "Cc1ccc(C)c(N(C)S(=O)(=O)c2cccc3nsnc23)c1", "values": [{"measurement": "EC50", "setting": "[3]", "value": "> 50 µM (not active)"}]}
{"smiles": "COc1cccc(NC(=O)C2C3C=CC4(O3)C2C(=O)N(C(C)C)C4C(=O)NC2CCCCC2C)c1", "note": "(stereo not given)", "values": [{"measurement": "EC50", "setting": "[3]", "value": "> 50 µM (not active)"}]}
{"smiles": "NS(=O)(=O)c1ccc(NC(=S)N2CCN(Cc3ccccc3)CC2)cc1", "values": [{"measurement": "IC50", "setting": "[4]", "value": "49.7 µM (active)"}, {"measurement": "IC50", "setting": "[5]", "value": "38.1 µM (active)"}]}
{"smiles": "O=C(N/N=C\\c1ccc(Cl)cc1)C1=NOC2COC3(CCN(c4ccc([N+](=O)[O-])cc4)CC3)OCC12", "note": "(stereo not given)", "values": [{"measurement": "EC50", "setting": "HEK293", "value": "> 35.4 µM (not active)"}, {"measurement": "EC50", "setting": "[6]", "value": "> 35.4 µM (not active)"}, {"measurement": "CC50", "setting": "[7]", "value": "> 40 µM (active)"}, {"measurement": "EC50", "setting": "[8]", "value": "> 35.4 µM (not active)"}]}
